{"source": "patent US8455475B2", "about": "(Gruenenthal GmbH, priority 2009, dated 2013)"}
{"target": "T1, rat B1R (bradykinin receptor 1) (Rattus norvegicus, UniProt P97583)", "T1 construct": "expressed in transfected cells; host or cells: CHO K1 cells", "T1 sequence (P97583 1-337)": "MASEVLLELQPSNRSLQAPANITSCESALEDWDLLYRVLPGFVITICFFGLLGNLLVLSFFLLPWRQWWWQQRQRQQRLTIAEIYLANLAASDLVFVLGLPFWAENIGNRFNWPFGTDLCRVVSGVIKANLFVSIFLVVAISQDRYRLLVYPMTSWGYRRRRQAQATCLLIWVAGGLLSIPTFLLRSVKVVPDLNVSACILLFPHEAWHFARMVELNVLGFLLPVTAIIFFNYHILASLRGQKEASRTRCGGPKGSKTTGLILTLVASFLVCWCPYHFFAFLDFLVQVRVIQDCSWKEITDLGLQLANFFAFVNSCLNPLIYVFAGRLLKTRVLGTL", "assay": "FLIPR Ca2+ assay (Fluo-4) on CHO K1 cells stably transfected with the B1R gene of the rat (rB1R cells): % inhibition at 10 μM / IC50, agonist Des-Arg9-bradykinin", "type": "cell-based", "conditions": "CHO-K1, rat B1R", "procedure,_shortened": "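Cells were Fluo-4-loaded, then test compound (10 μM, or a concentration series for IC50) was preincubated 10–20 min before agonist challenge at EC80: Lys-Des-Arg9-bradykinin for hB1R, Des-Arg9-bradykinin for rB1R. Peak Ca2+ fluorescence (ex 488/em 540 nm) gave % inhibition versus maximal achievable inhibition.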", "units": {"inhibition at 10 µM": "%"}}
{"smiles": "O=C(NC1CCc2ccc(C(=O)N3CCC4(CCN(Cc5ccc(F)cc5Cl)CC4)CC3)cc21)c1cccc(Cl)c1Cl", "note": "(centres unmarked) [IND_CC-726, 2,3-Dichloro-N-[6-[9-[(2-chloro-4-fluoro-phenyl)-methyl]-3,9-diazaspiro[5.5]undecane-3-carbonyl]-2,3-dihydro-1H-inden-1-yl]-benzamide]", "inhibition at 10 µM": 67}
{"smiles": "O=C(NC1CCc2ccc(C(=O)N3CCC4(CCN(Cc5c(F)cccc5Cl)CC4)CC3)cc21)c1cccc(Cl)c1Cl", "note": "(centres unmarked) [IND_CC-727, 2,3-Dichloro-N-[6-[9-[(2-chloro-6-fluoro-phenyl)-methyl]-3,9-diazaspiro[5.5]undecane-3-carbonyl]-2,3-dihydro-1H-inden-1-yl]-benzamide]", "inhibition at 10 µM": 74}
{"smiles": "Cc1nc(CN2CCC3(CC2)CCN(C(=O)c2ccc4c(c2)C(NC(=O)c2c(C)cccc2Cl)CC4)C3)c[nH]1", "note": "(centres unmarked) [IND_CC-728, 2-Chloro-6-methyl-N-[6-[8-[(2-methyl-1H-imidazol-4-yl)-methyl]-2,8-diazaspiro[4.5]decane-2-carbonyl]-2,3-dihydro-1H-inden-1-yl]-benzamide]", "inhibition at 10 µM": 58}
{"smiles": "Cc1cccc(Cl)c1C(=O)NC1CCc2ccc(C(=O)N3CCC4(CCN(Cc5cnn(C)c5C)CC4)C3)cc21", "note": "(centres unmarked) [IND_CC-729, 2-Chloro-N-[6-[8-[(1,5-dimethyl-1H-pyrazol-4-yl)-methyl]-2,8-diazaspiro-[4.5]decane-2-carbonyl]-2,3-dihydro-1H-inden-1-yl]-6-methyl-benzamide]", "inhibition at 10 µM": 76}
{"smiles": "Cc1cccc(Cl)c1C(=O)NC1CCc2ccc(C(=O)N3CCC4(CCN(Cc5c(C)noc5C)CC4)C3)cc21", "note": "(centres unmarked) [IND_CC-730, 2-Chloro-N-[6-[8-[(3,5-dimethyl-isoxazol-4-yl)-methyl]-2,8-diazaspiro-[4.5]decane-2-carbonyl]-2,3-dihydro-1H-inden-1-yl]-6-methyl-benzamide]", "inhibition at 10 µM": 75}
{"smiles": "Cc1cccc(Cl)c1C(=O)NC1CCc2ccc(C(=O)N3CCC4(CCN(Cc5ccc(C#N)cc5)CC4)C3)cc21", "note": "(centres unmarked) [IND_CC-731, 2-Chloro-N-[6-[8-[(4-cyano-phenyl)-methyl]-2,8-diazaspiro[4.5]decane-2-carbonyl]-2,3-dihydro-1H-inden-1-yl]-6-methyl-benzamide]", "inhibition at 10 µM": 83}
{"smiles": "Cc1cccc(Cl)c1C(=O)NC1CCc2ccc(C(=O)N3CCC4(CCN(Cc5cccc(C#N)c5)CC4)C3)cc21", "note": "(centres unmarked) [IND_CC-732, 2-Chloro-N-[6-[8-[(3-cyano-phenyl)-methyl]-2,8-diazaspiro[4.5]decane-2-carbonyl]-2,3-dihydro-1H-inden-1-yl]-6-methyl-benzamide]", "inhibition at 10 µM": 100}
{"smiles": "Cc1cccc(Cl)c1C(=O)NC1CCc2ccc(C(=O)N3CCC4(CCN(Cc5ccccc5C#N)CC4)C3)cc21", "note": "(centres unmarked) [IND_CC-733, 2-Chloro-N-[6-[8-[(2-cyano-phenyl)-methyl]-2,8-diazaspiro[4.5]decane-2-carbonyl]-2,3-dihydro-1H-inden-1-yl]-6-methyl-benzamide]", "inhibition at 10 µM": 83}
{"smiles": "Cc1cccc(Cl)c1C(=O)NC1CCc2ccc(C(=O)N3CCC4(CCN(Cc5ccc(F)cc5Cl)CC4)C3)cc21", "note": "(centres unmarked) [IND_CC-734, 2-Chloro-N-[6-[8-[(2-chloro-4-fluoro-phenyl)-methyl]-2,8-diazaspiro-[4.5]decane-2-carbonyl]-2,3-dihydro-1H-inden-1-yl]-6-methyl-benzamide]", "inhibition at 10 µM": 95}
{"smiles": "Cc1cccc(Cl)c1C(=O)NC1CCc2ccc(C(=O)N3CCC4(CCN(Cc5c(F)cccc5Cl)CC4)C3)cc21", "note": "(centres unmarked) [IND_CC-735, 2-Chloro-N-[6-[8-[(2-chloro-6-fluoro-phenyl)-methyl]-2,8-diazaspiro-[4.5]decane-2-carbonyl]-2,3-dihydro-1H-inden-1-yl]-6-methyl-benzamide]", "inhibition at 10 µM": 81}
{"smiles": "Cc1nc(CN2CCC3(CC2)CCN(C(=O)c2ccc4c(c2)C(NC(=O)c2c(F)cccc2Cl)CC4)C3)c[nH]1", "note": "(centres unmarked) [IND_CC-736, 2-Chloro-6-fluoro-N-[6-[8-[(2-methyl-1H-imidazol-4-yl)-methyl]-2,8-diazaspiro[4.5]decane-2-carbonyl]-2,3-dihydro-1H-inden-1-yl]-benzamide]", "inhibition at 10 µM": 93}
{"smiles": "Cc1c(CN2CCC3(CC2)CCN(C(=O)c2ccc4c(c2)C(NC(=O)c2c(F)cccc2Cl)CC4)C3)cnn1C", "note": "(centres unmarked) [IND_CC-737, 2-Chloro-N-[6-[8-[(1,5-dimethyl-1H-pyrazol-4-yl)-methyl]-2,8-diazaspiro-[4.5]decane-2-carbonyl]-2,3-dihydro-1H-inden-1-yl]-6-fluoro-benzamide]", "inhibition at 10 µM": 55}
{"smiles": "Cc1noc(C)c1CN1CCC2(CC1)CCN(C(=O)c1ccc3c(c1)C(NC(=O)c1c(F)cccc1Cl)CC3)C2", "note": "(centres unmarked) [IND_CC-738, 2-Chloro-N-[6-[8-[(3,5-dimethyl-isoxazol-4-yl)-methyl]-2,8-diazaspiro-[4.5]decane-2-carbonyl]-2,3-dihydro-1H-inden-1-yl]-6-fluoro-benzamide]", "inhibition at 10 µM": 89}
{"smiles": "N#Cc1ccc(CN2CCC3(CC2)CCN(C(=O)c2ccc4c(c2)C(NC(=O)c2c(F)cccc2Cl)CC4)C3)cc1", "note": "(centres unmarked) [IND_CC-739, 2-Chloro-N-[6-[8-[(4-cyano-phenyl)-methyl]-2,8-diazaspiro[4.5]decane-2-carbonyl]-2,3-dihydro-1H-inden-1-yl]-6-fluoro-benzamide]", "inhibition at 10 µM": 83}
{"smiles": "N#Cc1ccccc1CN1CCC2(CC1)CCN(C(=O)c1ccc3c(c1)C(NC(=O)c1c(F)cccc1Cl)CC3)C2", "note": "(centres unmarked) [IND_CC-740, 2-Chloro-N-[6-[8-[(2-cyano-phenyl)-methyl]-2,8-diazaspiro[4.5]decane-2-carbonyl]-2,3-dihydro-1H-inden-1-yl]-6-fluoro-benzamide]", "inhibition at 10 µM": 88}
{"smiles": "CCn1cc(CN2CCC3(CC2)CCN(C(=O)c2ccc4c(c2)C(NC(=O)c2cccc(Cl)c2Cl)CC4)C3)c(C)n1", "note": "(centres unmarked) [IND_CC-742, 2,3-Dichloro-N-[6-[8-[(1-ethyl-3-methyl-1H-pyrazol-4-yl)-methyl]-2,8-diazaspiro[4.5]decane-2-carbonyl]-2,3-dihydro-1H-inden-1-yl]-benzamide]", "inhibition at 10 µM": 50}
{"smiles": "CN(C)c1ncc(CN2CCC3(CC2)CCN(C(=O)c2ccc4c(c2)C(NC(=O)c2cccc(Cl)c2Cl)CC4)C3)cn1", "note": "(centres unmarked) [IND_CC-743, 2,3-Dichloro-N-[6-[8-[(2-dimethylamino-pyrimidin-5-yl)-methyl]-2,8-diazaspiro[4.5]decane-2-carbonyl]-2,3-dihydro-1H-inden-1-yl]-benzamide]", "inhibition at 10 µM": 80}
{"smiles": "O=C(NC1CCc2ccc(C(=O)N3CCC4(CCN(Cc5ccc6ncccc6c5)CC4)C3)cc21)c1cccc(Cl)c1Cl", "note": "(centres unmarked) [IND_CC-744, 2,3-Dichloro-N-[6-[8-(quinolin-6-yl-methyl)-2,8-diazaspiro[4.5]decane-2-carbonyl]-2,3-dihydro-1H-inden-1-yl]-benzamide]", "inhibition at 10 µM": 71}
{"smiles": "O=C(NC1CCc2ccc(C(=O)N3CCC4(CCN(Cc5ccc6nccnc6c5)CC4)C3)cc21)c1cccc(Cl)c1Cl", "note": "(centres unmarked) [IND_CC-745, 2,3-Dichloro-N-[6-[8-(quinoxalin-6-yl-methyl)-2,8-diazaspiro[4.5]decane-2-carbonyl]-2,3-dihydro-1H-inden-1-yl]-benzamide]", "inhibition at 10 µM": 70}
{"smiles": "Cn1nnc2cc(CN3CCC4(CC3)CCN(C(=O)c3ccc5c(c3)C(NC(=O)c3cccc(Cl)c3Cl)CC5)C4)ccc21", "note": "(centres unmarked) [IND_CC-746, 2,3-Dichloro-N-[6-[8-[(1-methyl-1H-benzotriazol-5-yl)-methyl]-2,8-diazaspiro[4.5]decane-2-carbonyl]-2,3-dihydro-1H-inden-1-yl]-benzamide]", "inhibition at 10 µM": 78}
{"smiles": "CC(C)CN1CCC2(CC1)CCN(C(=O)c1ccc3c(c1)C(NC(=O)c1cccc(Cl)c1Cl)CC3)C2", "note": "(centres unmarked) [IND_CC-747, 2,3-Dichloro-N-[6-[8-(2-methyl-propyl)-2,8-diazaspiro[4.5]decane-2-carbonyl]-2,3-dihydro-1H-inden-1-yl]-benzamide]", "inhibition at 10 µM": 59}
{"smiles": "CCC(CC)CN1CCC2(CC1)CCN(C(=O)c1ccc3c(c1)C(NC(=O)c1cccc(Cl)c1Cl)CC3)C2", "note": "(centres unmarked) [IND_CC-748, 2,3-Dichloro-N-[6-[8-(2-ethyl-butyl)-2,8-diazaspiro[4.5]decane-2-carbonyl]-2,3-dihydro-1H-inden-1-yl]-benzamide]", "inhibition at 10 µM": 70}
{"smiles": "O=C(NC1CCc2ccc(C(=O)N3CCC4(CCN(CCc5ccccc5)CC4)C3)cc21)c1cccc(Cl)c1Cl", "note": "(centres unmarked) [IND_CC-749, 2,3-Dichloro-N-[6-(8-phenethyl-2,8-diazaspiro[4.5]decane-2-carbonyl)-2,3-dihydro-1H-inden-1-yl]-benzamide]", "inhibition at 10 µM": 70}
{"smiles": "O=C(NC1CCc2ccc(C(=O)N3CCC4(CCN(CCCc5cccc(F)c5)CC4)C3)cc21)c1cccc(Cl)c1Cl", "note": "(centres unmarked) [IND_CC-750, 2,3-Dichloro-N-[6-[8-[3-(3-fluorophenyl)-propyl]-2,8-diazaspiro[4.5]decane-2-carbonyl]-2,3-dihydro-1H-inden-1-yl]-benzamide]", "inhibition at 10 µM": 99}
{"smiles": "O=C(NC1CCc2ccc(C(=O)N3CCC4(CCN(CCCc5ccc(F)cc5)CC4)C3)cc21)c1cccc(Cl)c1Cl", "note": "(centres unmarked) [IND_CC-751, 2,3-Dichloro-N-[6-[8-[3-(4-fluorophenyl)-propyl]-2,8-diazaspiro[4.5]decane-2-carbonyl]-2,3-dihydro-1H-inden-1-yl]-benzamide]", "inhibition at 10 µM": 98}
{"smiles": "CCn1cc(CN2CCC3(CC2)CCN(C(=O)c2ccc4c(c2)C(NC(=O)c2cccc(Cl)c2Cl)CC4)CC3)c(C)n1", "note": "(centres unmarked) [IND_CC-752, 2,3-Dichloro-N-[6-[9-[(1-ethyl-3-methyl-1H-pyrazol-4-yl)-methyl]-3,9-diazaspiro[5.5]undecane-3-carbonyl]-2,3-dihydro-1H-inden-1-yl]-benzamide]", "inhibition at 10 µM": 69}
